From patent US20110245294A1, “METHODS OF IMPROVING QUALITY OF SLEEP” (THERAVIDA, INC., priority 2010, published 2011)

Legend:
[1] = tested on: patients being treated for OAB
Excerpt: Enrollment of subjects already taking this medication was used to enable the collection of steady-state baseline information and to minimize discontinuations during the 4-week treatment period. On three consecutive days, subjects were asked to complete paper diaries where the subject answered questions related to the degree of difficulty of sleep and responded by using a VAS. These questions and VAS have been validated and used in other clinical studies. Furthermore, each subject relinquished the completed diary at the end of each treatment period following a review by clinic staff.
The methods used to collect information for assessment of quality of sleep, subjects were asked specific questions and they rated their quality of sleep using a VAS. The mean of the values obtained on each of the three days was used as the sole value for the baseline or treatment value. The methods used to evaluate effect on quality of sleep of the combination and oxybutynin alone are widely used and considered standard.
The VAS is a validated scale utilized in clinical trials and registrational studies of many drugs. Patients were instructed on how to complete the diary over 3 consecutive days and perform VAS assessments for quality of sleep on the diary days. The ratings were from 0 to 100 on a 100-mm line, and the patient was asked to rate themself by marking the horizontal line. For instance, quality of sleep was quantified as 0=easy and 100=difficult.

[2] = tested on: healthy volunteers; conditions: some studies have suggested; cited from earlier work

Structure (SMILES) | VAS quality of sleep response versus baseline or monotherapy, in words ([1]; 100-point mm scale, reduction from baseline) | Change in LSM from Baseline in Quality of Sleep ([1]; ITT population, N = 42, lower scores indicate improvement from baseline, P value 0.0073 between treatments) | Quality of Sleep Value (VAS), mean ([1]; mean over subjects, 0=easy, 100=difficult, 2 weeks treatment, baseline mean 37.6 mm) | effect on sleep [2]
CCN(CC)CC#CCOC(=O)C(O)(c1ccccc1)C1CCCCC1 (centres unmarked) [Oxybutynin, oxybutynin] | unchanged from baseline | 3.7 mm | 41.3 mm | adverse effect on the sleep
O=C(O[C@H]1C[C@H]2CC[C@@H](C1)[N+]21CCCC1)C(O)(c1ccccc1)c1ccccc1 [trospium] |  |  |  | adverse effect on the sleep
